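Abbreviation: GI50, concentration required for 50% inhibition of growth. TGI marks complete inhibition of growth.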
Experiments:
Assay in all cases: DTP human tumour cell line panel, 384-well format
786-0 renal = system: 786-0 renal
A498 renal = system: A498 renal
A549 NSCLC = system: A549 NSCLC
ACHN renal = system: ACHN renal
BT-549 breast = system: BT-549 breast
CAKI-1 renal = system: CAKI-1 renal
CCRF-CEM leukemia = system: CCRF-CEM leukemia
COLO 205 colon = system: COLO 205 colon
DU-145 prostate = system: DU-145 prostate
EKVX NSCLC = system: EKVX NSCLC
HCC-2998 colon = system: HCC-2998 colon
HCT-15 colon = system: HCT-15 colon
HL-60(TB) leukemia = system: HL-60(TB) leukemia
HOP-62 NSCLC = system: HOP-62 NSCLC
HOP-92 NSCLC = system: HOP-92 NSCLC
HS 578T breast = system: HS 578T breast
HT29 colon = system: HT29 colon
IGROV1 ovarian = system: IGROV1 ovarian
K-562 leukemia = system: K-562 leukemia
KM12 colon = system: KM12 colon
LOX IMVI melanoma = system: LOX IMVI melanoma
M14 melanoma = system: M14 melanoma
MALME-3M melanoma = system: MALME-3M melanoma
MCF7 breast = system: MCF7 breast
MDA-MB-231 breast = system: MDA-MB-231 breast
MDA-MB-435 melanoma = system: MDA-MB-435 melanoma
MDA-MB-468 breast = system: MDA-MB-468 breast
MOLT-4 leukemia = system: MOLT-4 leukemia
NCI-H226 lung = system: NCI-H226 lung
NCI-H23 lung = system: NCI-H23 lung
NCI-H322M lung = system: NCI-H322M lung
NCI-H460 NSCLC = system: NCI-H460 NSCLC
NCI-H522 lung = system: NCI-H522 lung
NCI/ADR-RES ovarian = system: NCI/ADR-RES ovarian
OVCAR-3 ovarian = system: OVCAR-3 ovarian
OVCAR-4 ovarian = system: OVCAR-4 ovarian
OVCAR-5 ovarian = system: OVCAR-5 ovarian
OVCAR-8 ovarian = system: OVCAR-8 ovarian
PC-3 prostate = system: PC-3 prostate
RPMI-8226 leukemia = system: RPMI-8226 leukemia
RXF 393 renal = system: RXF 393 renal
SF-268 CNS = system: SF-268 CNS
SF-295 CNS = system: SF-295 CNS
SF-539 CNS = system: SF-539 CNS
SK-MEL-28 melanoma = system: SK-MEL-28 melanoma
SK-MEL-5 melanoma = system: SK-MEL-5 melanoma
SK-OV-3 ovarian = system: SK-OV-3 ovarian
SN12C renal = system: SN12C renal
SNB-19 CNS = system: SNB-19 CNS
SNB-75 CNS = system: SNB-75 CNS
SR leukemia = system: SR leukemia
SW-620 colon = system: SW-620 colon
T-47D breast = system: T-47D breast
TK-10 renal = system: TK-10 renal
U251 glioblastoma = system: U251 glioblastoma
UACC-257 melanoma = system: UACC-257 melanoma
UACC-62 melanoma = system: UACC-62 melanoma
UO-31 renal = system: UO-31 renal

Nc1ncnc2c1c(-c1cccc(OCc3ccccc3)c1)cn2C1CC(CN2CCC2)C1 (stereo unspecified)
GI50 ([…]-0 renal): 1610 nM | TGI (786-0 renal): 2970 nM | GI50 (A498 renal): 1490 nM | TGI (A498 renal): 2830 nM | GI50 (A549 NSCLC): 1550 nM | TGI (A549 NSCLC): 3070 nM | GI50 (ACHN renal): 1910 nM | TGI (ACHN renal): 3710 nM | GI50 (BT-549 breast): 1370 nM | TGI (BT-549 breast): 2680 nM | GI50 (CAKI-1 renal): 1650 nM | TGI (CAKI-1 renal): 3220 nM | GI50 (CCRF-CEM leukemia): 2080 nM | TGI (CCRF-CEM leukemia): 3520 nM | GI50 (COLO 205 colon): 327 nM | TGI (COLO 205 colon): 1440 nM | GI50 (DU-145 prostate): 2650 nM | TGI (DU-145 prostate): 11000 nM | GI50 (EKVX NSCLC): 1410 nM | TGI (EKVX NSCLC): 3100 nM | GI50 (HCC-2998 colon): 1400 nM | TGI (HCC-2998 colon): 2720 nM | GI50 (HCT-15 colon): 1280 nM | TGI (HCT-15 colon): 2590 nM | GI50 (HL-60(TB) leukemia): 182 nM | TGI (HL-60(TB) leukemia): 1030 nM | GI50 (HOP-62 NSCLC): 1820 nM | TGI (HOP-62 NSCLC): 3250 nM | GI50 (HOP-92 NSCLC): 1140 nM | TGI (HOP-92 NSCLC): 2360 nM | GI50 (HS 578T breast): 1820 nM | TGI (HS 578T breast): 3230 nM | GI50 (HT29 colon): 336 nM | TGI (HT29 colon): 1720 nM | GI50 (IGROV1 ovarian): 2180 nM | TGI (IGROV1 ovarian): 4870 nM | GI50 (K-562 leukemia): 1690 nM | TGI (K-562 leukemia): 3100 nM | GI50 (KM12 colon): 1820 nM | TGI (KM12 colon): 3760 nM | GI50 (LOX IMVI melanoma): 1610 nM | TGI (LOX IMVI melanoma): 2970 nM | GI50 (M14 melanoma): 1620 nM | TGI (M14 melanoma): 2980 nM | GI50 (MALME-3M melanoma): 1060 nM | TGI (MALME-3M melanoma): 2250 nM | GI50 (MCF7 breast): 360 nM | TGI (MCF7 breast): 1680 nM | GI50 (MDA-MB-231 breast): 1660 nM | TGI (MDA-MB-231 breast): 3340 nM | GI50 (MDA-MB-435 melanoma): 1280 nM | TGI (MDA-MB-435 melanoma): 2570 nM | GI50 (MDA-MB-468 breast): 1330 nM | TGI (MDA-MB-468 breast): 2630 nM | GI50 (MOLT-4 leukemia): 1770 nM | TGI (MOLT-4 leukemia): 3160 nM | GI50 (NCI-H226 lung): 1190 nM | TGI (NCI-H226 lung): 2960 nM | GI50 (NCI-H23 lung): 1100 nM | TGI (NCI-H23 lung): 2490 nM | GI50 (NCI-H322M lung): 1650 nM | TGI (NCI-H322M lung): 4490 nM | GI50 (NCI-H460 NSCLC): 1340 nM | TGI (NCI-H460 NSCLC): 2690 nM | GI50 (NCI-H522 lung): 1720 nM | TGI (NCI-H522 lung): 3120 nM | GI50 (NCI/ADR-RES ovarian): 1760 nM | TGI (NCI/ADR-RES ovarian): 3420 nM | GI50 (OVCAR-3 ovarian): 1760 nM | TGI (OVCAR-3 ovarian): 3450 nM | GI50 (OVCAR-4 ovarian): 1890 nM | TGI (OVCAR-4 ovarian): 4040 nM | GI50 (OVCAR-5 ovarian): 1300 nM | TGI (OVCAR-5 ovarian): 2860 nM | GI50 (OVCAR-8 ovarian): 1610 nM | TGI (OVCAR-8 ovarian): 3010 nM | GI50 (PC-3 prostate): 1800 nM | TGI (PC-3 prostate): 3460 nM | GI50 (RPMI-8226 leukemia): 1830 nM | TGI (RPMI-8226 leukemia): 3230 nM | GI50 (RXF 393 renal): 1590 nM | TGI (RXF 393 renal): 2970 nM | GI50 (SF-268 CNS): 1810 nM | TGI (SF-268 CNS): 3230 nM | GI50 (SF-295 CNS): 1890 nM | TGI (SF-295 CNS): 3310 nM | GI50 (SF-539 CNS): 1760 nM | TGI (SF-539 CNS): 3150 nM | GI50 (SK-MEL-28 melanoma): 1430 nM | TGI (SK-MEL-28 melanoma): 2740 nM | GI50 (SK-MEL-5 melanoma): 704 nM | TGI (SK-MEL-5 melanoma): 2000 nM | GI50 (SK-OV-3 ovarian): 1750 nM | TGI (SK-OV-3 ovarian): 3160 nM | GI50 (SN12C renal): 2310 nM | TGI (SN12C renal): 5800 nM | GI50 (SNB-19 CNS): 2530 nM | TGI (SNB-19 CNS): 7280 nM | GI50 (SNB-75 CNS): 1920 nM | TGI (SNB-75 CNS): 3520 nM | GI50 (SR leukemia): 1650 nM | TGI (SR leukemia): 3020 nM | GI50 (SW-620 colon): 1330 nM | TGI (SW-620 colon): 2630 nM | GI50 (T-47D breast): 1490 nM | TGI (T-47D breast): 2900 nM | GI50 (TK-10 renal): 1610 nM | TGI (TK-10 renal): 3240 nM | GI50 (U251 glioblastoma): 1870 nM | TGI (U251 glioblastoma): 3390 nM | GI50 (UACC-257 melanoma): 1130 nM | TGI (UACC-257 melanoma): 2350 nM | GI50 (UACC-62 melanoma): 1510 nM | TGI (UACC-62 melanoma): 2840 nM | GI50 (UO-31 renal): 1610 nM | TGI (UO-31 renal): 3020 nM

— PubChem BioAssay (NCI)
